# Experimental data from patent publication US20060264411A1, “Control of biofilm formation” (priority 2005, published 2006).
# Experiments:
# [1] = tested on: E. coli clinical strain UTI89; assay: Biofilm formation inhibition, crystal violet, E. coli clinical strain UTI89; type: cell-based; conditions: Escherichia coli, read-out: inhibited biofilm formation as compared to the controls
# Protocol: (§1) Biofilm inhibition experiments were conducted using an assay adapted from the reported protocol described in Pratt and Kolter, 1998, Molecular Microbiology, 30: 285-293; Li et al., 2001, J. Bacteriol., 183: 897-908. E. coli clinical strain UTI89 was grown in LB in 96 well plates at room temperature for one or two days without shaking. E. coli laboratory strain JM109 was grown in LB plus 0.2% glucose in 96 well plates at room temperature for one day without shaking. To quantify the biofilm mass, the suspension culture was poured out and the biofilm was washed three times with water. The biofilm was stained with 0.1% crystal violet for 20 minutes. The plates were then washed three times with water. OD reading at 540 nm was measured to quantify the biofilm mass at the bottom of the wells. Then 95% ethanol was added to dissolve the dye at the bottom and on the wall and the OD reading at 540 nm was measured to quantify the total biofilm mass. To study the overall effect of the compounds (3.6 mg/mL in 100% ethanol as stock solution), it was added with the inoculation and a time course of biofilm mass was measured. Appropriate amounts of 100% ethanol were added to each sample to eliminate the effect of solvent. Each condition had 3-4 replicates on each plate and was performed over multiple days.
# [2] = tested on: E. coli laboratory strain JM109; assay: Biofilm formation inhibition, crystal violet, E. coli laboratory strain JM109; type: cell-based; conditions: Escherichia coli, read-out: inhibited biofilm formation as compared to the controls
# Protocol: as §1
# [3] = tested on: E. coli (ATCC 25922); assay: Antibacterial effect (NCCLS MIC); type: cell-based; conditions: Escherichia coli, ATCC25922, studied at 64 μg/mL, read-out: MIC (minimal inhibitory concentration)
# Protocol: (§2) Using the appropriate NCCLS procedures, the antibacterial effect of asiatic acid on Haemophilus influenzae (ATCC 10211), E. coli (ATCC 25922), and P. aeruginosa (ATCC 27853) was studied at 64 μg/mL.
# [4] = tested on: Haemophilus influenzae (ATCC 10211); assay: Antibacterial effect (NCCLS MIC); type: cell-based; conditions: ATCC10211, studied at 64 μg/mL, read-out: MIC (minimal inhibitory concentration)
# Protocol: as §2
# [5] = tested on: P. aeruginosa (ATCC 27853); assay: Antibacterial effect (NCCLS MIC); type: cell-based; conditions: Pseudomonas aeruginosa, ATCC27853, studied at 64 μg/mL, read-out: MIC (minimal inhibitory concentration)
# Protocol: as §2
# [6] = tested on: S. mutans 25175; assay: Biofilm growth inhibition in polycarbonate tubes; type: cell-based; conditions: Streptococcus mutans, 40 μg/mL
# [7] = tested on: E. coli clinical strain UTI89; assay: Invasion of E. coli UTI89 into bladder epithelial cells; type: cell-based; conditions: 40 μg/ml; 60 minutes; separate experiments (n=4-7)
# Protocol: The effect of test compounds on bacterial invasion of E. coli clinical strain UTI89 was studied as described in Elsinghorst, et al. 1994, Methods Enzymol, 236:405-420; and Martinez et al., 2000, EMBO J., 19:2803-2812. Epithelial bladder cells were grown in plates. Asiatic acid, corosolic acid, or ursolic acid were added at concentrations of 10 μg/ml, 20 μg/ml, or 40 μg/ml to bacteria and epithelial cells for approximately 5, 15, 30, or 60 minutes with approximately 10^7 CFU of E. coli. Binding was assessed at time zero and invasion was assessed at approximately 5, 15, 30, or 60 minutes from completing the mixture of compound, bacteria, and epithelial cells. As a control ethanol was added to cells to a final concentration of 0.1%. The effect of bacterial viability and bacterial adherence during the infection period was evaluated according to the methods described in Martinez et al., 2000, EMBO J., 19:2803-2812.
# [8] = tested on: bacterial invasion; assay: Bacterial invasion statement of Example 9; conditions: within 15 minutes of administration
# [9] = tested on: E. coli UTI89[pCOMGFP]; assay: Biofilm pods / intracellular bacterial communities (IBC) in mouse bladders, confocal microscopy; type: in vivo, C3H/HeN mice
# Protocol: The experiment was performed using the procedures described in Justice, S. et al., Differentiation and development pathways of uropathogenic Escherichia coli in urinary tract pathogenesis.PNAS, 2004, 101(5), p. 1333-1338. Briefly, E. coli UTI89[pCOMGFP] was prepared after retrieval from frozen stocks by inoculating in LB medium statically for approximately 20 hours. Cells were harvested and suspended in 1 ml of PBS. Cells were diluted to achieve approximately a 10^8 CFU or 10^7 CFU input into C3H/HeN mice (2 mice per group).
# Mice were deprived of water for approximately two hours. In experiment 1, all mice were anesthetized with 0.15 cc ketamine cocktail. In experiment 2, all mice were anesthetized with isofluorane. In experiment 1, urine was dispelled from the bladders and approximately 40 μg/ml of test compound or an appropriate amount of ethanol as control was introduced into the bladders via catheterization of the urethra using a tubing coated tuberculin syringe. 30 minutes was allowed to elapse. In experiment 2, bladders were not pre-incubated with test compounds. Bladders were then expelled and an inoculum of 10^8 CFU (Experiment 1) or 10^7 CFU (Experiment 2) of E. coli containing 40 μg/ml of test compound or equivalent amount of ethanol as controls were introduced into the bladders as indicated above.
# In experiment 1 five hours elapsed and in experiment 2 six hours elapsed, and then mice were anesthetized and sacrificed. The bladders were removed, bisected, stretched, and fixed in 3% paraformaldehyde for 1 hour at room temperature. Bladders were then permeabilized in 0.01% Triton/PBS for 10 minutes and counter stained with TOPRO3 (Molecular Probes) for 10 minutes for visualization by confocal microscopy. Bladders were mounted on Prolong antifade (Molecular Probes).
# [10] = tested on: cysB gene; conditions: examples of U.S. patent application Ser. No. 11/085,279; cited from earlier work
smiles,measurement,setting,value
"C[C@H]1[C@H](C)CC[C@]2(C(=O)O)CC[C@]3(C)C(=CC[C@@H]4[C@@]5(C)C[C@@H](O)[C@H](O)[C@@](C)(CO)[C@@H]5CC[C@]43C)[C@H]12 [Asiatic acid, asiatic acid]",inhibition at 4 µg/mL,[1]; 4 ug/ml,~10%
same,inhibition at 8 µg/mL,[1]; 8 ug/ml,~15%
same,inhibition at 16 µg/mL,[1]; 16 ug/ml,~50%
same,inhibition at 32 µg/mL,[1]; 32 ug/ml,~90%
same,inhibition at 5 µg/mL,"[2]; JM 109, 5 ug/ml",~70%
same,inhibition at 10 µg/mL,"[2]; JM 109, 10 ug/ml",~80%
same,MIC,[3],> 64 µg/mL
same,MIC,[4],> 64 µg/mL
same,MIC,[5],> 64 µg/mL
same,inhibition at 40 µg/mL,[6],> 75%
same,reduced invasion of E. coli into bladder epithelial cells as compared to the controls,[7],87%
same,bacterial invasion (in words),[8],significantly reduced bacterial invasion
same,reduction in biofilm pods or intracellular bacterial communities (IBC) in the bladders of mice as compared to the controls,"[9]; experiment 1: 40 μg/ml intravesical, 30 min pre-incubation, 10^8 CFU, five hours",77%
same,reduction in large biofilm pods or large IBC in the bladders of mice as compared to the controls,"[9]; experiment 2: 40 μg/ml with inoculum, no pre-incubation, 10^7 CFU, six hours",~60%
same,expression of a cysB gene in E. coli,[10],modulate the expression of a cysB gene
